Like-named read-outs stand apart in the source and are kept apart here. Positions of bridges follow the written chain, without caps; N, C: chain ends. Residues, ends and D or L forms follow the SMILES beside them.
Legend:
hNav1.5 = hNav1.5 (Homo sapiens, UniProt Q14524); experiment: cell-based
hNav1.3 = hNav1.3 (Homo sapiens, UniProt Q9NY46); experiment: cell-based; settings: IonWorks Quattro, read-out: IWQ Use Nav1.3
[1] = clamped to −110 mV, depolarized to −10 mV, 5 min after compound, n=2

Sequence of hNav1.5 (Q14524 whole entry, looked up): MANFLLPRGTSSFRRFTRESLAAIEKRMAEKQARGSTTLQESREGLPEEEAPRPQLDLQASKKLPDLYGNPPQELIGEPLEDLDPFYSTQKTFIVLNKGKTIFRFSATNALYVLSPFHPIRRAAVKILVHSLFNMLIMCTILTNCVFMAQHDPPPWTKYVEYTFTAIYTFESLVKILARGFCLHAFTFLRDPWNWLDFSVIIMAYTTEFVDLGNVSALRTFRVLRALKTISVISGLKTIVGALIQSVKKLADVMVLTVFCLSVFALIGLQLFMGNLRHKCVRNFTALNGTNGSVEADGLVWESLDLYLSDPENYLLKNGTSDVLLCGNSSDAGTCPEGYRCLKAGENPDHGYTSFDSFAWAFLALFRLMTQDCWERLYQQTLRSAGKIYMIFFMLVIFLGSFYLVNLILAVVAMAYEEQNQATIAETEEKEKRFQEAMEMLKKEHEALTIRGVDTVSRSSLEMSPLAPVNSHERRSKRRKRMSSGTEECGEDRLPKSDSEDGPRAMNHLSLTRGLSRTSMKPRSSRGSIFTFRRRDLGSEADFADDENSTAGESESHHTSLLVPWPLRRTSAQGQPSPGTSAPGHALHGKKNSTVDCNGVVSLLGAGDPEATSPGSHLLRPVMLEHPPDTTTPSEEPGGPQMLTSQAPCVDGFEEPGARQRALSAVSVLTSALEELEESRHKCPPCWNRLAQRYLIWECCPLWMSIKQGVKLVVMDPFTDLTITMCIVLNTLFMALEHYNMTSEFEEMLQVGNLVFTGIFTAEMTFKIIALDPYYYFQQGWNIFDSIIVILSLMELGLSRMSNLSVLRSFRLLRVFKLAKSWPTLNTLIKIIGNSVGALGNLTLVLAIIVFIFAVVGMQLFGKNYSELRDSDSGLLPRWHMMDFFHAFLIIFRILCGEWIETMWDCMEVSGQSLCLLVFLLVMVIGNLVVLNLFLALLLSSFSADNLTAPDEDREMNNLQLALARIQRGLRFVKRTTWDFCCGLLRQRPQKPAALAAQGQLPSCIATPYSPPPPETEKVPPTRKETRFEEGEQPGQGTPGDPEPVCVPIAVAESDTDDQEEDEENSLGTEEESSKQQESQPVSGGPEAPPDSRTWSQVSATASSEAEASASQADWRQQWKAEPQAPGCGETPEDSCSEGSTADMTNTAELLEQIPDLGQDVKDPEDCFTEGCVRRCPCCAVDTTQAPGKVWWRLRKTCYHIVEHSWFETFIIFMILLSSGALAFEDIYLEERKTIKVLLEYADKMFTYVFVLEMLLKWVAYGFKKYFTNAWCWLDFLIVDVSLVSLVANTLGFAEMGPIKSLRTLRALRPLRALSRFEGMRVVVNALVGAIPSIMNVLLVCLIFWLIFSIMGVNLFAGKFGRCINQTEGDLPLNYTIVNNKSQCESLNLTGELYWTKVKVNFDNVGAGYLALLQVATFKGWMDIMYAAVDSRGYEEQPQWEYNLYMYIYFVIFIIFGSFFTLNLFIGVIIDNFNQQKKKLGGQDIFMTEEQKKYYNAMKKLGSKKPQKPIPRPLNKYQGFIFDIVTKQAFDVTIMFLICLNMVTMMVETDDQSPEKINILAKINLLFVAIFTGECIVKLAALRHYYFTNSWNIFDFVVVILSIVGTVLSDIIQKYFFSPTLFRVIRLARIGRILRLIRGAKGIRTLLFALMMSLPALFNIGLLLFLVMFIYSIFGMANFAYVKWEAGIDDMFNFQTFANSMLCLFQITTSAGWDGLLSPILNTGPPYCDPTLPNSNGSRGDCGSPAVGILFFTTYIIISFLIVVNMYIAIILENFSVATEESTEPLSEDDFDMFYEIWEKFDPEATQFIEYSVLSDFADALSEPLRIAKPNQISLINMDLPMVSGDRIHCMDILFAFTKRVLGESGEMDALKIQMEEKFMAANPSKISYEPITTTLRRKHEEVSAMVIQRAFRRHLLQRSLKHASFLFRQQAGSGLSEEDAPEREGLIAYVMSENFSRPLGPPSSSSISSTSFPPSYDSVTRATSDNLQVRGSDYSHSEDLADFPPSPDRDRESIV
Sequence of hNav1.3 (Q9NY46 whole entry, looked up): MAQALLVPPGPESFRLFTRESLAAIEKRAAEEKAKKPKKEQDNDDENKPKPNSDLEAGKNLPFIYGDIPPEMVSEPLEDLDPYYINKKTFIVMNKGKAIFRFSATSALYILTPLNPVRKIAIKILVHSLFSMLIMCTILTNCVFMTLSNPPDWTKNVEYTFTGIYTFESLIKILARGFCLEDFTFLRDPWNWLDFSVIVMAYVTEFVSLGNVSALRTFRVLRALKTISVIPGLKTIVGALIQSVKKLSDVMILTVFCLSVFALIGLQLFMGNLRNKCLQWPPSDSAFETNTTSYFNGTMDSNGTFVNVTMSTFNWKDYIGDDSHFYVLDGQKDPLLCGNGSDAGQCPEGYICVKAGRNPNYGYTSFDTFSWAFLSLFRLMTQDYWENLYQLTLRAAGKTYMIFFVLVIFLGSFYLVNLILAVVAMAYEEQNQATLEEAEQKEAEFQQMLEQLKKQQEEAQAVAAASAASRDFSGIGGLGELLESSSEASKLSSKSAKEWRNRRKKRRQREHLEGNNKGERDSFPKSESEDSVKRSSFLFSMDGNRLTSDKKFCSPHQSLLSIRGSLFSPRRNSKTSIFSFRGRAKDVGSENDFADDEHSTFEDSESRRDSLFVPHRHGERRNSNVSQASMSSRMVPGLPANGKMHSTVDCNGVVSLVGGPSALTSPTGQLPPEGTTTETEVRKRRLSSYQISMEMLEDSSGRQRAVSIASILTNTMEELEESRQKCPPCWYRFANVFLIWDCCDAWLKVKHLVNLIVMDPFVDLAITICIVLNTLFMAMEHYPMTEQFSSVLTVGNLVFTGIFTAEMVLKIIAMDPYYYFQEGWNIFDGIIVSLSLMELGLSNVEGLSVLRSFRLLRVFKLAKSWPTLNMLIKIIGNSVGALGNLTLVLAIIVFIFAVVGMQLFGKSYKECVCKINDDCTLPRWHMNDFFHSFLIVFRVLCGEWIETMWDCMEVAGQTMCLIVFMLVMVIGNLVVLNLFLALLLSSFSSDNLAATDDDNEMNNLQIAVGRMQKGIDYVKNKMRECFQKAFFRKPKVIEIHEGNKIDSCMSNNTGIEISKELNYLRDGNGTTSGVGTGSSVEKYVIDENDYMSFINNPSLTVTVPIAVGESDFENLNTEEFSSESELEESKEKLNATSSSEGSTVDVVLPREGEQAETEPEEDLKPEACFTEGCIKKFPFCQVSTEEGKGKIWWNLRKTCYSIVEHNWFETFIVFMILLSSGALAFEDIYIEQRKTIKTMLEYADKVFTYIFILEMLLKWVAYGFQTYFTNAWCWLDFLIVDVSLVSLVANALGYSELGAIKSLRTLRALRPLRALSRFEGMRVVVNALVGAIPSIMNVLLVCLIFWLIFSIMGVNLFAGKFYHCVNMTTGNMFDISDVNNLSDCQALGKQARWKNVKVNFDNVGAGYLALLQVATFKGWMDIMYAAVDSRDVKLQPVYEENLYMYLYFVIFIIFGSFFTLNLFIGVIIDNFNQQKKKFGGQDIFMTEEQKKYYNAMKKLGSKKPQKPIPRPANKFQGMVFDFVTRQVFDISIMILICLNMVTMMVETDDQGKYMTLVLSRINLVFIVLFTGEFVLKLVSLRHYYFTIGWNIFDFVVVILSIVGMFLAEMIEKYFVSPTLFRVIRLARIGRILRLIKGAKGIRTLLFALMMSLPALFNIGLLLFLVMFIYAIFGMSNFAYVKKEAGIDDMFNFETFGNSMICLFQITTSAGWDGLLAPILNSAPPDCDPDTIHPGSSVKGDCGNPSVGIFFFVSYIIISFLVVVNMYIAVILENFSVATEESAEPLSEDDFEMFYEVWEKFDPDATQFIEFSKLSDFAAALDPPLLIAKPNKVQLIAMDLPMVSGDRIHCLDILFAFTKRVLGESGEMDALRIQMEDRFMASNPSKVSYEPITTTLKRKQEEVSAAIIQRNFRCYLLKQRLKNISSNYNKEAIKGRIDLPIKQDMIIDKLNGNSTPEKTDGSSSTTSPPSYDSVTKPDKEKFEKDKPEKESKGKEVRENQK

SMILES	IC50 (hNav1.5; Table 26, IonWorks Quattro, use, […], read-out: IWQ Use Nav1.5)	IC50 (hNav1.3; Table 26, use, […])	IC50 (hNav1.5; IWQ Use Nav1.5)	IC50 (hNav1.3; [1])	IC50 (hNav1.5; IonWorks Quattro, clamped to −110 mV, depolarized to −10 mV, 5 min after compound, n=2, read-out: IWQ Use Nav1.5)
CC[C@H](C)[C@@H]1NC(=O)[C@@H]2CSSC[C@@H]3NC(=O)[C@H](C(C)C)NC(=O)[C@H](CC(C)C)NC(=O)[C@H](CC(N)=O)NC(=O)[C@@H]4CCCN4C(=O)[C@H](CCCNC(=N)N)NC(=O)[C@H](CSSC[C@H](NC(=O)[C@@H](N)CC(=O)O)C(=O)N[C@@H](CC(C)C)C(=O)NCC(=O)N[C@@H](Cc4ccccc4)C(=O)N[C@@H](CCSC)C(=O)N[C@@H](CCCNC(=N)N)C(=O)N[C@@H](CCCCN)C(=O)N2)NC(=O)[C@H](CSSC[C@@H](C(=O)N[C@@H](CCCCN)C(=O)N[C@@H](Cc2ccc(O)cc2)C(=O)N[C@@H](CCC(=O)O)C(=O)N[C@@H](Cc2ccccc2)C(N)=O)NC(=O)[C@H](Cc2c[nH]c4ccccc24)NC(=O)[C@H](CCCCN)NC(=O)[C@H](Cc2cnc[nH]2)NC(=O)[C@H]([C@@H](C)O)NC(=O)[C@H](CCCNC(=N)N)NC(=O)[C@H](CO)NC3=O)NC(=O)[C@H](CCCCN)NC(=O)[C@H](CC(=O)O)NC(=O)[C@H](CC(N)=O)NC(=O)[C@H](CC(=O)O)NC(=O)[C@@H]2CCCN2C1=O [SEQ ID NO: 33, [Glu33]GpTx-1] (H-DCLGFMRKCIPDNDKCCRPNLVCSRTHKWCKYEF-NH2; disulfide 2-17, 9-23, 16-30)	11.5 µM	0.39 µM			
CC[C@H](C)[C@@H]1NC(=O)[C@@H]2CSSC[C@@H]3NC(=O)[C@H](C(C)C)NC(=O)[C@H](CC(C)C)NC(=O)[C@H](CC(N)=O)NC(=O)[C@@H]4CCCN4C(=O)[C@H](CCCNC(=N)N)NC(=O)[C@H](CSSC[C@H](NC(=O)[C@@H](N)CCCCN)C(=O)N[C@@H](CC(C)C)C(=O)NCC(=O)N[C@@H](Cc4ccccc4)C(=O)N[C@@H](CCSC)C(=O)N[C@@H](CCCNC(=N)N)C(=O)N[C@@H](CCCCN)C(=O)N2)NC(=O)[C@H](CSSC[C@@H](C(=O)N[C@@H](CCCCN)C(=O)N[C@@H](Cc2ccc(O)cc2)C(=O)N[C@H](C(=O)N[C@@H](Cc2ccccc2)C(N)=O)C(C)C)NC(=O)[C@H](Cc2c[nH]c4ccccc24)NC(=O)[C@H](CCCCN)NC(=O)[C@H](Cc2cnc[nH]2)NC(=O)[C@H]([C@@H](C)O)NC(=O)[C@H](CCCNC(=N)N)NC(=O)[C@H](CO)NC3=O)NC(=O)[C@H](CCCCN)NC(=O)[C@H](CC(=O)O)NC(=O)[C@H](CC(N)=O)NC(=O)[C@H](CC(=O)O)NC(=O)[C@@H]2CCCN2C1=O [SEQ ID NO: 37] (H-KCLGFMRKCIPDNDKCCRPNLVCSRTHKWCKYVF-NH2; disulfide 2-17, 9-23, 16-30)			7.29 µM	0.07 µM	
CC[C@H](C)[C@@H]1NC(=O)[C@@H]2CSSC[C@@H]3NC(=O)[C@H](C(C)C)NC(=O)[C@H](CC(C)C)NC(=O)[C@H](CC(N)=O)NC(=O)[C@@H]4CCCN4C(=O)[C@H](CCCNC(=N)N)NC(=O)[C@H](CSSC[C@H](NC(=O)[C@@H](N)CCCNC(=N)N)C(=O)N[C@@H](CC(C)C)C(=O)NCC(=O)N[C@@H](Cc4ccccc4)C(=O)N[C@@H](CCSC)C(=O)N[C@@H](CCCNC(=N)N)C(=O)N[C@@H](CCCCN)C(=O)N2)NC(=O)[C@H](CSSC[C@@H](C(=O)N[C@@H](CCCCN)C(=O)N[C@@H](Cc2ccc(O)cc2)C(=O)N[C@H](C(=O)N[C@@H](Cc2ccccc2)C(N)=O)C(C)C)NC(=O)[C@H](Cc2c[nH]c4ccccc24)NC(=O)[C@H](CCCCN)NC(=O)[C@H](Cc2cnc[nH]2)NC(=O)[C@H]([C@@H](C)O)NC(=O)[C@H](CCCNC(=N)N)NC(=O)[C@H](CO)NC3=O)NC(=O)[C@H](CCCCN)NC(=O)[C@H](CC(=O)O)NC(=O)[C@H](CC(N)=O)NC(=O)[C@H](CC(=O)O)NC(=O)[C@@H]2CCCN2C1=O [SEQ ID NO: 62] (H-RCLGFMRKCIPDNDKCCRPNLVCSRTHKWCKYVF-NH2; disulfide 2-17, 9-23, 16-30)				0.1 µM	8.78 µM
